Series [1] concerns the target T1, Peptidyl-prolyl cis-trans isomerase FKBP4 (Homo sapiens, UniProt Q02790).
T1 sequence (Q02790 whole entry): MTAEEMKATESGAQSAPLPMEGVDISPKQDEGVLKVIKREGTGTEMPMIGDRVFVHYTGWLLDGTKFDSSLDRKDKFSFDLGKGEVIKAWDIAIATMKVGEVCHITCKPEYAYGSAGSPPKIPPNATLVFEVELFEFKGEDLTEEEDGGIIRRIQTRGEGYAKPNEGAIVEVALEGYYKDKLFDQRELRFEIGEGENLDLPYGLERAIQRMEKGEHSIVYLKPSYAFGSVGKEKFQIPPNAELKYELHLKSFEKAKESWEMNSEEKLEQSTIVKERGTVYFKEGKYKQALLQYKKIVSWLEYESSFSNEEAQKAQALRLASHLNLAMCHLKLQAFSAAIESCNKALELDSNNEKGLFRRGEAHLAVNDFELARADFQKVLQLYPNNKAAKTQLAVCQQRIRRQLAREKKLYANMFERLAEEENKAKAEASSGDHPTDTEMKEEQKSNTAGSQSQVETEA
Nature of the series: Inhibition of human full length N-terminal His-tagged/C-terminal FLAG tagged FKBP52 expressed in Escherichia coli BL21 (DE3) cells incubated for 30 mins by competitive fluorescence polarization assay. The following applies: 0.5 h. (In general: In fluorescence polarisation assays a small probe gives low polarisation when free and higher when bound to something large.)

Series [2] has as its target T2, Peptidyl-prolyl cis-trans isomerase FKBP5 (Homo sapiens, UniProt Q13451).
T2 sequence (Q13451 whole entry): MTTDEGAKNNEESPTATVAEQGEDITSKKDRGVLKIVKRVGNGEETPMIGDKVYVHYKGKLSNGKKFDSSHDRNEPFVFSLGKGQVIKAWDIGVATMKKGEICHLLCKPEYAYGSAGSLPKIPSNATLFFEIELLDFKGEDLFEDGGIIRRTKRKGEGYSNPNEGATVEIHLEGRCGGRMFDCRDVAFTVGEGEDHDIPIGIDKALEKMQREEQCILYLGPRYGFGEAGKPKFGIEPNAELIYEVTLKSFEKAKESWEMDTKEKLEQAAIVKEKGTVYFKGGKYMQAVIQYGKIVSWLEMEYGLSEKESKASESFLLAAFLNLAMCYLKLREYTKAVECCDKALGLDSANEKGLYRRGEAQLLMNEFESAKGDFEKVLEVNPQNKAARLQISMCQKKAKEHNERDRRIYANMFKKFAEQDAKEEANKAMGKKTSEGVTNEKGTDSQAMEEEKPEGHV
Nature of the series: Inhibition of human full length N-terminal His-tagged/C-terminal FLAG tagged FKBP51 expressed in Escherichia coli BL21 (DE3) cells incubated for 30 mins by competitive fluorescence polarization assay.

The target in series [3] is T3, Peptidyl-prolyl cis-trans isomerase FKBP5 (Homo sapiens) (UniProt Q13451).
T3 sequence (whole entry): T2 sequence (Q13451 whole entry)
Nature of the series: Inhibition of human full length N-terminal His-tagged/C-terminal FLAG tagged FKBP51 expressed in Escherichia coli BL21 (DE3) cells at >=10 uM incubated for 30 mins by competitive fluorescence polarization assay.

The nature of series [4]: Solubility of compound. Format: physicochemical.

The results in this text go back to ChEMBL document CHEMBL4376844, “A Novel Decalin-Based Bicyclic Scaffold for FKBP51-Selective Ligands” (J Med Chem, 2020).

Molecules are shown by their SMILES. Active and inactive are the calls of the source. The calls are words filed in the database; no cut-off is given here.

`COc1ccc(CC[C@@H](OC(=O)[C@@H]2CCCCN2C(=O)[C@H]2[C@@H]3CCCC[C@H]3C=C[C@@H]2C)c2cccc(OCC(=O)O)c2)cc1OC`: the “inhibition (INH)” value in series [1] was “Not Active”. In series [2], this compound showed a Ki of 2000 nM. Taken in the same sequence, the figures for `COc1ccc(CCC(OC(=O)C2CCCCN2C(=O)[C@@H]2CC(=O)C[C@@H]3CCCC[C@H]32)c2cccc(OCCN3CCOCC3)c2)cc1OC` (single isomer, unassigned) were “Not Active” and 1300 nM. For `COc1ccc(CC[C@@H](OC(=O)[C@@H]2CCCCN2C(=O)[C@@H]2CC(=O)C[C@@H]3CCC[C@H]32)c2cccc(OCC(=O)O)c2)cc1OC`, the “inhibition (INH)” value in series [1] was “Not Active”. The Ki in series [2] stood at 28000 nM. Take `COc1ccc(CC[C@@H](OC(=O)[C@@H]2CCCCN2C(=O)[C@@H]2CC=C[C@@H]3CCC[C@H]32)c2cccc(OCC(=O)O)c2)cc1OC`: the “inhibition (INH)” value in series [1] is recorded as “Not Active”. The compound further yielded a Ki in series [2] of 7800 nM. As for `COc1ccc(CC[C@@H](OC(=O)[C@@H]2CCCCN2C(=O)[C@@H]2CCCc3ccccc32)c2cccc(OCC(=O)O)c2)cc1OC`, the inhibition result in series [3] is “inactive”. This compound returned a solubility in series [4] of more than 10 µM. On to `COc1ccc(CCC(OC(=O)C2CCCCN2C(=O)[C@H]2[C@@H]3CCCC[C@H]3C=C[C@@H]2C)c2cccc(OCCN3CCOCC3)c2)cc1OC` (single isomer, unassigned), for which, in series [1], the “inhibition (INH)” value was “Not Active”. The affinity in series [2], expressed as Ki, was 1900 nM. On to `COc1ccc(CCC(OC(=O)C2CCCCN2C(=O)[C@@H]2CC=C[C@@H]3CCCC[C@H]32)c2cccc(OCCN3CCOCC3)c2)cc1OC` (single isomer, unassigned), for which, in series [1], the “inhibition (INH)” value is listed as “Not Active”. In series [2], this compound returned a Ki of 2600 nM. As for `COc1ccc(CC[C@@H](OC(=O)[C@@H]2CCCCN2C(=O)c2cccc3c2CCCC3)c2cccc(OCC(=O)O)c2)cc1OC`, in series [3], the inhibition result is “inactive”. The same compound came in with a solubility in series [4] of more than 10 µM.

Take `COc1ccc(CC[C@@H](OC(=O)[C@@H]2CCCCN2C(=O)[C@@H]2CCC(=O)[C@@H]3CCC[C@H]32)c2cccc(OCC(=O)O)c2)cc1OC`: the “inhibition (INH)” value in series [1] is recorded as “Not Active”. This compound registered a Ki in series [2] of 3100 nM. Regarding `COc1ccc(CC[C@@H](OC(=O)[C@@H]2CCCCN2C(=O)[C@@H]2CCC[C@@H]3CCC[C@H]32)c2cccc(OCC(=O)O)c2)cc1OC`, in series [1], the “inhibition (INH)” value is “Not Active”. In series [2], this compound came in with a Ki of 2600 nM. Consider `COc1ccc(CC[C@@H](OC(=O)[C@@H]2CCCCN2C(=O)c2ccnc3ccccc23)c2cccc(OCC(=O)O)c2)cc1OC`, for which the inhibition result in series [3] was “inactive”. In series [4], the solubility is more than 10 µM. As for `COc1ccc(CC[C@@H](OC(=O)[C@@H]2CCCCN2C(=O)[C@@H]2CCC(O)[C@@H]3CCCC[C@@H]23)c2cccc(OCCN3CCOCC3)c2)cc1OC` (stereo partly drawn), the “inhibition (INH)” value in series [1] is on record as “Not Active”. `COc1ccc(CCC(OC(=O)C2CCCCN2C(=O)[C@H]2[C@@H]3CCCC[C@H]3C(=O)C[C@@H]2C)c2cccc(OCCN3CCOCC3)c2)cc1OC` (single isomer, unassigned): the “inhibition (INH)” value in series [1] is “Not Active”. In addition, in series [2], the Ki is 330 nM. Taken in the same sequence, the figures for `COc1ccc(CC[C@@H](OC(=O)[C@@H]2CCCCN2C(=O)[C@H]2[C@@H]3CCCC[C@H]3CC[C@@H]2C)c2cccc(OCC(=O)O)c2)cc1OC` were “Not Active” and 490 nM. Consider `COc1ccc(CC[C@@H](OC(=O)[C@@H]2CCCCN2C(=O)[C@@H]2CC=C[C@@H]3CCCC[C@H]32)c2cccc(OCC(=O)O)c2)cc1OC`, for which the “inhibition (INH)” value in series [1] is “Not Active”. This compound came in with a Ki in series [2] of 2400 nM. The corresponding values for `COc1ccc(CC[C@@H](OC(=O)[C@@H]2CCCCN2C(=O)[C@@H]2C[C@H]3OC(C)(C)O[C@H]3[C@@H]3CCCC[C@H]32)c2cccc(OCCN3CCOCC3)c2)cc1OC` are “Not Active” and 8200 nM. Take `COc1ccc(CCC(OC(=O)C2CCCCN2C(=O)[C@@H]2CCC(=O)[C@@H]3CCCC[C@H]32)c2cccc(OCCN3CCOCC3)c2)cc1OC` (single isomer, unassigned): in series [1], the “inhibition (INH)” value is on record as “Not Active”. This compound gave an inhibition constant (Ki) in series [2] of 230 nM.

For orientation: Ki means the equilibrium dissociation constant of an inhibitor or competing ligand from its target. The term solubility denotes the dissolved amount per volume that the medium holds. High values mean much dissolved substance, low ones little dissolved substance.
